Values quoted from earlier work, collected in patent publication US8563051B2, “Herbal composition for weight management” (InQpharm Sdn Bhd, priority 2005, dated 2013).
Where two headings read alike, the source gives them in different places.

Tests used:
[1] = doses in the range of 1 to 5 grams a day
[2] = rodents
[3] = tested on: Ehrlich ascites tumor cell; conditions: in vitro
[4] = 8-week human clinical study, 26 subjects
[5] = human clinical weight loss trial
[6] = human clinical trial; blood levels not measured

Compound: O=C(O)CC(O)(C(=O)O)C(O)C(=O)O (single isomer, unassigned; (-)) [HCA, (−)hydroxycitric acid]
- safety assessment [1]: no relevant safety issues

Compound: sodium salt of hydroxycitric acid
- food intake and weight [2]: reduce food intake and cause weight loss

Compound: C[C@H]1[C@H](C)CC[C@]2(C(=O)O)CC[C@]3(C)C(=CC[C@@H]4[C@@]5(C)C[C@@H](O)[C@H](O)C(C)(C)[C@@H]5CC[C@]43C)[C@H]12 [Corosolic acid, 2-hydroxyursolic acid]
- glucose transport activity [3]: stimulate significant glucose transport activity
- glucose tolerance and blood sugar levels [4]: improved glucose tolerance and improved blood sugar levels

Compound: O=C([O-])CC(O)(C(=O)[O-])C(O)C(=O)[O-].[Ca+2].[K+] (stereo not drawn) [calcium and potassium hydroxycitrate]
- weight loss [5]: shown to be effective

Compound: O=C([O-])C[C@@](O)(C(=O)[O-])[C@H](O)C(=O)[O-].O=C([O-])C[C@@](O)(C(=O)[O-])[C@H](O)C(=O)[O-].[Ca+2].[Ca+2].[Ca+2] [calcium salt of hydroxycitric acid]
- weight loss [6]: ineffective for weight loss
